According to ChEMBL document CHEMBL5303765, “Data for DCP probe BAY-7081” (2023):

How the values were obtained:
Conditions in all cases: for ΔTm: Compound concentration 10.0 uM
[1] = biological target: Mitogen-activated protein kinase 14 (Homo sapiens) (UniProt Q16539); experiment: MAPK14 SGC Tm panel (DSF)
[2] = biological target: T1, Dual specificity tyrosine-phosphorylation-regulated kinase 2 (Homo sapiens) (UniProt Q92630); experiment: DYRK2 SGC Tm panel (DSF)
T1 sequence (whole entry): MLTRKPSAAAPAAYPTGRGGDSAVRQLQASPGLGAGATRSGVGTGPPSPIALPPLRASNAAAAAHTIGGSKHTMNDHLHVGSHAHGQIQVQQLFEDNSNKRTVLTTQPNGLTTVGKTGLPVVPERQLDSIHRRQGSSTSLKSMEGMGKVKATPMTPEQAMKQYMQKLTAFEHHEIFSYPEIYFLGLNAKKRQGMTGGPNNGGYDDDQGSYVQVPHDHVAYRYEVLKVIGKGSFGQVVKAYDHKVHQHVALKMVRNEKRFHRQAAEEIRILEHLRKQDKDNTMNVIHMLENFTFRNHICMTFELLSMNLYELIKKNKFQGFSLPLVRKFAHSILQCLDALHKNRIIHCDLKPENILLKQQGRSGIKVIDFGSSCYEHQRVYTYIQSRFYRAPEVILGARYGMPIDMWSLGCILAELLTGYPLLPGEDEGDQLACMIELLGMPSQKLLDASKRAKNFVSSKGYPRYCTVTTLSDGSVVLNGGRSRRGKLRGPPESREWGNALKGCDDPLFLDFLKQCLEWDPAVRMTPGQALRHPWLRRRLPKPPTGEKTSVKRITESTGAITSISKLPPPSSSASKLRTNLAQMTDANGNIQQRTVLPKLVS

[3] = biological target: AP2-associated protein kinase 1 (Homo sapiens) (UniProt Q2M2I8); experiment: AAK1 SGC Tm panel (DSF)
[4] = biological target: Ephrin type-A receptor 7 (Homo sapiens) (UniProt Q15375); experiment: EPHA7 SGC Tm panel (DSF)
[5] = biological target: T2, Cyclin-G-associated kinase (Homo sapiens) (UniProt O14976); experiment: GAK SGC Tm panel (DSF)
T2 sequence (whole entry): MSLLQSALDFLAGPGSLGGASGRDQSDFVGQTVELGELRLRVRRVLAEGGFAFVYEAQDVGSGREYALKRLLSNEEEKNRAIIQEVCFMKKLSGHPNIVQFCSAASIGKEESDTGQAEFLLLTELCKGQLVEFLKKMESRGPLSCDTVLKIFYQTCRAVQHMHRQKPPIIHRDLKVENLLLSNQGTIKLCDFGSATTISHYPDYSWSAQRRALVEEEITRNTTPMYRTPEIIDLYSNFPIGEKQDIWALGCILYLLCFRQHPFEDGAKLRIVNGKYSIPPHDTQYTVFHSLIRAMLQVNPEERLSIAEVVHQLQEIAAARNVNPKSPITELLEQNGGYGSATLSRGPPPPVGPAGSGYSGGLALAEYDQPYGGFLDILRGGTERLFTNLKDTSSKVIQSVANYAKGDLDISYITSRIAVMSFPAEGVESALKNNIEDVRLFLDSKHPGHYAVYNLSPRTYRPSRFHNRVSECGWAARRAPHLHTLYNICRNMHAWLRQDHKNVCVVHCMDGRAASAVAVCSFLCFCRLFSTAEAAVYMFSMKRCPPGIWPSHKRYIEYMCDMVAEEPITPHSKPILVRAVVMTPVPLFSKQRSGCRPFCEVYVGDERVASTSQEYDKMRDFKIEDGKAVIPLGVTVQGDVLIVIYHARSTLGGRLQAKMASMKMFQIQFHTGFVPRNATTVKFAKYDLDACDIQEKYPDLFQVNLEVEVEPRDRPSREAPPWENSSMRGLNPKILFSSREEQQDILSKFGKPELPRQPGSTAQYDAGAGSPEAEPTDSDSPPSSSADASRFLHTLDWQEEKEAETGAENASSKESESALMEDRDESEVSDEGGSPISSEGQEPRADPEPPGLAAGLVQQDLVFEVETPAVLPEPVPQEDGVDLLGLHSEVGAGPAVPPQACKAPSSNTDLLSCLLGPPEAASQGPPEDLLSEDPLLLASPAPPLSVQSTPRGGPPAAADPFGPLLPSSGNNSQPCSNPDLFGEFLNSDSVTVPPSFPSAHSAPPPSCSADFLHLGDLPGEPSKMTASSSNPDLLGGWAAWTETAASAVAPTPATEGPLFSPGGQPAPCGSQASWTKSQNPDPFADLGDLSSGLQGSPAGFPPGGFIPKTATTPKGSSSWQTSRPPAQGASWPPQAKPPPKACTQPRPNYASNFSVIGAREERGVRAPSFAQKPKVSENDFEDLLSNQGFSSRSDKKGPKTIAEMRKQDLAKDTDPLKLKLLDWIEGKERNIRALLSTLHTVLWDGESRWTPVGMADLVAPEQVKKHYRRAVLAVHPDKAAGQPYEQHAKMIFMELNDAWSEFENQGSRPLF

[6] = biological target: T3, Peripheral plasma membrane protein CASK (Homo sapiens) (UniProt O14936); experiment: CASK SGC Tm panel (DSF)
T3 sequence (whole entry): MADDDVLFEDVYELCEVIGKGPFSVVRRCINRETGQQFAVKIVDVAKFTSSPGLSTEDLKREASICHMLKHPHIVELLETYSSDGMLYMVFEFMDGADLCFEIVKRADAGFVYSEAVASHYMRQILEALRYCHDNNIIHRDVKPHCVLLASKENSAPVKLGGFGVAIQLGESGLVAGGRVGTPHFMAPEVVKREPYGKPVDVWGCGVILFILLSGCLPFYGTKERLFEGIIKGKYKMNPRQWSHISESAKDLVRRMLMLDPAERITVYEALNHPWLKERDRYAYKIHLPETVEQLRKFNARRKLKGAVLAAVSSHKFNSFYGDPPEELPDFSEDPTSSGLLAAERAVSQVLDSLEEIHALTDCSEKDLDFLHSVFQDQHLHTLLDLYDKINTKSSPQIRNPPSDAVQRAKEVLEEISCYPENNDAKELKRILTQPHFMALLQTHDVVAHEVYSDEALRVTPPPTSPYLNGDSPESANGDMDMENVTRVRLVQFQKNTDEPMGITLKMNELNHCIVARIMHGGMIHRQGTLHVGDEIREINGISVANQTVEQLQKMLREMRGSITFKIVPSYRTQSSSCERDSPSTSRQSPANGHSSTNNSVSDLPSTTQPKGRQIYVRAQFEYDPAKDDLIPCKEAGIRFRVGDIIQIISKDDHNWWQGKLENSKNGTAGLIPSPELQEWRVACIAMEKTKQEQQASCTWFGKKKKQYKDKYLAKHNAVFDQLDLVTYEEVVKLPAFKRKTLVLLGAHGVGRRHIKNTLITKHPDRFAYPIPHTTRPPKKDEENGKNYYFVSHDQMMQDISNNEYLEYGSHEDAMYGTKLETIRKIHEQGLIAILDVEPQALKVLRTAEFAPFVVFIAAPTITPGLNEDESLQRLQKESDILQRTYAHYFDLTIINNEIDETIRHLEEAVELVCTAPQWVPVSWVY

Chain of AP2-associated protein kinase 1 (Homo sapiens) (Q2M2I8 whole entry, looked up): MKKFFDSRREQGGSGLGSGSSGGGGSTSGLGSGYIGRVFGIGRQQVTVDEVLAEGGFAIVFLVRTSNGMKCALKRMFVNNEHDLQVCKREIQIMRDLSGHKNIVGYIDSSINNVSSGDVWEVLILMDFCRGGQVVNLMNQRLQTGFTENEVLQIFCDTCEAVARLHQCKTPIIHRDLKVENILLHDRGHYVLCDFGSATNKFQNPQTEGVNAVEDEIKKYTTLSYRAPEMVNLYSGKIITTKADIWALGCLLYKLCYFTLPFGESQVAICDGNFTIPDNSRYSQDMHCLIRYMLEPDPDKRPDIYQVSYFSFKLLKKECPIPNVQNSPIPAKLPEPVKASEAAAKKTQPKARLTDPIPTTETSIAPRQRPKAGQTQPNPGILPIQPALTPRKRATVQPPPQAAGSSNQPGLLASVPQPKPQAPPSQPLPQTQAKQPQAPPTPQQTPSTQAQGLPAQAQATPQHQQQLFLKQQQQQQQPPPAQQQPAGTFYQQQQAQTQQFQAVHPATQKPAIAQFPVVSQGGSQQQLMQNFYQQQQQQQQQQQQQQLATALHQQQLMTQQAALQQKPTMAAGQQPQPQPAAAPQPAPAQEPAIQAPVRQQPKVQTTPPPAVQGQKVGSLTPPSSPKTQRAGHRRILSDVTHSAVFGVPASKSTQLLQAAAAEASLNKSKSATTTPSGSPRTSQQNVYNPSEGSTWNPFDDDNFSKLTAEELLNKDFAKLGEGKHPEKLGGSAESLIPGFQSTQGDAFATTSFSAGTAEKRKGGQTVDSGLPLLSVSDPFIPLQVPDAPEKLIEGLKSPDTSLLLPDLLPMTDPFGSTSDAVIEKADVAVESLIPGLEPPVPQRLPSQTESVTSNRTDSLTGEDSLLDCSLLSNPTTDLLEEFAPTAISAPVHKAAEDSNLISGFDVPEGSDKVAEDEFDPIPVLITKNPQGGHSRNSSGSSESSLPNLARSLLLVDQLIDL
Chain of Ephrin type-A receptor 7 (Homo sapiens) (Q15375 28-998 limits assumed): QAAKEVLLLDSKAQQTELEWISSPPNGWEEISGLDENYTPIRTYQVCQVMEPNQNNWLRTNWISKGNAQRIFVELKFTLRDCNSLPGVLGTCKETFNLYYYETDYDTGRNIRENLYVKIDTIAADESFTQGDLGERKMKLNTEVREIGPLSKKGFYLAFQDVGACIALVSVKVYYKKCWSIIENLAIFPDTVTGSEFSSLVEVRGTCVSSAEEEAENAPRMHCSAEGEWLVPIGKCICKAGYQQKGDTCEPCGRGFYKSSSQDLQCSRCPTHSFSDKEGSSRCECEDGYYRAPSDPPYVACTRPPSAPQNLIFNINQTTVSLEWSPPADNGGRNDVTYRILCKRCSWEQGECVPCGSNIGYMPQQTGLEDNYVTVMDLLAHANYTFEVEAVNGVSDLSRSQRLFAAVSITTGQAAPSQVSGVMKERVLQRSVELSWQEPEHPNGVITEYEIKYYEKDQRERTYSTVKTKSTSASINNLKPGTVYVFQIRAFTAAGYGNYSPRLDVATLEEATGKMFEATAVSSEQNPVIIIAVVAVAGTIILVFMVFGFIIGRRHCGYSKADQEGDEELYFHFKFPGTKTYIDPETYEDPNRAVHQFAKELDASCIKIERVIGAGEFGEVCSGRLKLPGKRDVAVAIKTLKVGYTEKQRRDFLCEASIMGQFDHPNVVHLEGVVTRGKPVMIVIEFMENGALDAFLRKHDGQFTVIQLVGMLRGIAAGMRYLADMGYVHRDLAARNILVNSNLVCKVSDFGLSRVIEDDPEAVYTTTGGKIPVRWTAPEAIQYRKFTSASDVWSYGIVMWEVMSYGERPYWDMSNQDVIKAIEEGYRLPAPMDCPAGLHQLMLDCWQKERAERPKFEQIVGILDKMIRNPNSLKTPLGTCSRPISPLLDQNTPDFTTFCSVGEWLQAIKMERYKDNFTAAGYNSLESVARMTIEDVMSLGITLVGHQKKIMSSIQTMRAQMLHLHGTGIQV
Chain of Mitogen-activated protein kinase 14 (Homo sapiens) (Q16539 whole entry): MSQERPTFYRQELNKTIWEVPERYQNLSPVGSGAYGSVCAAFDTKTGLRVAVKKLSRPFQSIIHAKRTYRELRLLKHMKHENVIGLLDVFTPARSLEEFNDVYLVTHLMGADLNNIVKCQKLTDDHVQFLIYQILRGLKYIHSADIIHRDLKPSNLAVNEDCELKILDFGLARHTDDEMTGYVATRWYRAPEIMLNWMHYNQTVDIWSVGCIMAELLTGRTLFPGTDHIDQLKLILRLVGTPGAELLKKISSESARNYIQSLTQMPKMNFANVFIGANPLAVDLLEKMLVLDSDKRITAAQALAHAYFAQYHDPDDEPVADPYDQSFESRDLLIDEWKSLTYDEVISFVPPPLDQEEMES

Compound	delta Tm Staurosporine positive control [1]	ΔTm [1]	delta Tm Staurosporine positive control [2]	ΔTm [2]	delta Tm Staurosporine positive control [3]	ΔTm [3]	delta Tm Staurosporine positive control [4]	ΔTm [4]	delta Tm Staurosporine positive control [5]	ΔTm [5]	delta Tm Staurosporine positive control [6]	ΔTm [6]
CCC[C@@H]1CNCc2c1[nH]c(=O)c(C#N)c2N1CCC2(CC1)CC2	0.178	-0.46	5.55	-0.189	12.4	-0.478	12.1	-0.583	9.89	-1.01	4.28	-0.0745
CCC[C@H]1CNCc2c1[nH]c(=O)c(C#N)c2N1CCC2(CC1)CC2	0.178	-0.473	5.55	-0.198	12.4	-0.482	12.1	-0.592	9.89	-1.15	4.28	-0.242
